The ΔTm is the change in melting temperature against a reference sample. Usually IC50 stands for the concentration that inhibits the measured activity by half.

SMILES strings stand for the structures. Where “and” joins values, the source holds several entries; their conditions need not be identical. Equal entries are not always repeated.

We go through four compounds from ChEMBL document CHEMBL5108010, “Structure-activity relationship studies on divalent naphthalene diimide G quadruplex ligands with anticancer and antiparasitic activity” (Bioorg Med Chem, 2022).

The subject of series [1] is Quadruplex DNA. Put plainly: Binding affinity to G-quadruplex telomeric DNA FMycT (5'-duplex GGG TTAGGG TTAGGG TTAGGG-3') (unknown origin) assessed as stabilization by measuring change in melting temperature at 10 uM in potassium buffer by FRET melting assay. In kind it is nucleic-acid assay.
Series [2] in a line: Drug uptake in Trypanosoma brucei incubated at 37 degreeC for 2 hrs by flow cytometry analysis. The series is classed as ADME.
A short description of series [3]: (§1) Cytotoxicity against human MRC5 cells assessed as inhibition of cell proliferation incubated for 72 hrs by alamar blue assay. Particulars: human, MRC5 cells; call rule not given here. In kind it is toxicity, cell-based. A general note: Resazurin is reduced to fluorescent resorufin, in cell work by metabolically active cells.
Series [4] can be described thus: Drug uptake in human MRC5 cells incubated at 37 degreeC for 2 hrs by flow cytometry analysis. The conditions noted are these: mrc5, 2 h. The series is classed as ADME, cell-based. (In general: Flow cytometry measures light scatter and fluorescence of single cells or particles in a stream.)
Series [5] is described as follows: Drug internalization in nuclei of Trypanosoma brucei at 5 uM incubated for 6 hrs by DAPI staining based confocal fluorescence microscopic analysis. The series is classed as ADME.
Another series deals with HeLa. The experiment in a line: Cytotoxicity against human HeLa cells assessed as inhibition of cell proliferation incubated for 72 hrs by alamar blue assay. In kind it is functional, cell-based.
Series [6] is described as follows: Selectivity index, ratio of IC50 for cytotoxicity against human MRC5 cells to IC50 for cytotoxicity against human HeLa cells. In kind it is toxicity, cell-based. The conditions noted are these: for selectivity ratio: MRC5 cells versus HeLa cells, read-out: Ratio IC50.
Series [7] is described as follows: Drug uptake in Trypanosoma brucei assessed as drug internalization at 5 uM incubated for 2 hrs by DAPI staining based confocal fluorescence microscopic analysis. In kind it is ADME.
Series [8] can be described thus: Drug uptake in human MRC5 cells incubated at 4 degreeC for 2 hrs by flow cytometry analysis. In kind it is ADME, cell-based. The conditions noted are these: mrc5, 2 h.
Series [9] can be described thus: Selectivity index, ratio of IC50 for cytotoxicity against human MRC5 cells to IC50 for antitrypanosomal activity against Trypanosoma brucei bloodstream form. The series is classed as toxicity, cell-based. The conditions noted are these: for selectivity ratio: MRC5 cells versus Trypanosoma brucei bloodstream form, read-out: Ratio IC50.
The test system of a further series is Trypanosoma brucei. Put plainly: Antitrypanosomal activity against Trypanosoma brucei bloodstream form assessed as inhibition of parasite growth incubated for 72 hrs by alamar blue assay. The series is classed as functional, organism-based.
For a further series, the system named is Leishmania major. The experiment in a line: Antileishmanial activity against Leishmania major (MHOM/IL/80/Friedlin) promastigotes assessed as inhibition of parasite growth incubated for 72 hrs by MTT assay. In kind it is functional, organism-based. Background: Formazan colour is commonly taken as a measure of viable cells.
Series [10] can be described thus: Drug uptake in human MRC5 cells assessed as drug internalization at 5 uM incubated for 120 mins by DAPI staining based confocal fluorescence microscopic analysis. The series is classed as ADME, cell-based. The conditions noted are these: mrc5, 2 h.
The nature of series [11]: Selectivity index, ratio of IC50 for cytotoxicity against human MRC5 cells to IC50 for antileishmanial activity against Leishmania major (MHOM/IL/80/Friedlin) promastigotes. The conditions noted are these: read-out: Ratio IC50. The series is classed as toxicity, cell-based.
The nature of series [12]: Binding affinity to hairpin duplex DNA F10T (unknown origin) assessed as stabilization by measuring change in melting temperature at 10 uM in potassium buffer by FRET melting assay.
A short description of series [13]: Drug uptake in human MRC5 cells assessed as drug internalization at 5 uM incubated for 30 mins by DAPI staining based confocal fluorescence microscopic analysis. The conditions noted are these: mrc5, 0.5 h. The series is classed as ADME, cell-based.
The test system of series [14] is Quadruplex DNA. Put plainly: Binding affinity to Trypanosoma brucei G-quadruplex telomeric DNA FEBR1T (5'-duplex GGG TTAGGG TTAGGG TTAGGG-3') assessed as stabilization by measuring change in melting temperature at 10 uM in potassium buffer by FRET melting assay. In kind it is nucleic-acid assay.
The nature of series [15]: Drug uptake in Trypanosoma brucei incubated at 4 degreeC for 16 hrs by flow cytometry analysis. The series is classed as ADME.
The test system of series [16] is Quadruplex DNA. The experiment in a line: Binding affinity to G-quadruplex telomeric DNA F21T (5'-duplex GGG TTAGGG TTAGGG TTAGGG-3') (unknown origin) assessed as stabilization by measuring change in melting temperature at 10 uM in potassium buffer by FRET melting assay. The series is classed as nucleic-acid assay.
Series [17] is described as follows: Drug internalization in nuclei of human MRC5 cells at 5 uM incubated for 2 hrs by DAPI staining based confocal fluorescence microscopic analysis. In kind it is ADME, cell-based. The conditions noted are these: mrc5, 2 h.
In series [18] the test system is Quadruplex DNA. Put plainly: Binding affinity to G-quadruplex telomeric DNA F21T (5'-duplex GGG TTAGGG TTAGGG TTAGGG-3') (unknown origin) assessed as stabilization by measuring change in melting temperature at 10 uM in sodium buffer by FRET melting assay. In kind it is nucleic-acid assay.
A short description of series [19]: Drug uptake in Trypanosoma brucei assessed as drug internalization at 5 uM incubated for 6 hrs by DAPI staining based confocal fluorescence microscopic analysis. In kind it is ADME.
Series [20] in a line: Drug uptake in Trypanosoma brucei incubated at 4 degreeC for 2 hrs by flow cytometry analysis. The series is classed as ADME.
A short description of series [21]: Drug uptake in human MRC5 cells incubated at 4 degreeC for 30 mins by flow cytometry analysis. In kind it is ADME, cell-based. The conditions noted are these: mrc5, 0.5 h.
Series [22] can be described thus: Drug uptake in human MRC5 cells incubated at 37 degreeC for 30 mins by flow cytometry analysis. Particulars: mrc5, 0.5 h. In kind it is ADME, cell-based.
Series [23] can be described thus: Drug uptake in Trypanosoma brucei incubated at 37 degreeC for 16 hrs by flow cytometry analysis. In kind it is ADME.
Series [24] has as its system Quadruplex DNA. The experiment in a line: Binding affinity to G-quadruplex telomeric DNA F21T (5'-duplex GGG TTAGGG TTAGGG TTAGGG-3') (unknown origin) assessed as stabilization by measuring change in melting temperature at 1 uM in sodium buffer by FRET melting assay. In kind it is nucleic-acid assay.
Series [25] has as its system Quadruplex DNA. Put plainly: Binding affinity to G-quadruplex telomeric DNA F21T (5'-duplex GGG TTAGGG TTAGGG TTAGGG-3') (unknown origin) assessed as stabilization by measuring change in melting temperature at 1 uM in potassium buffer by FRET melting assay. The series is classed as nucleic-acid assay.
Series [26] deals with Quadruplex DNA. The experiment in a line: Binding affinity to G-quadruplex telomeric DNA FMycT (5'-duplex GGG TTAGGG TTAGGG TTAGGG-3') (unknown origin) assessed as stabilization by measuring change in melting temperature at 1 uM in potassium buffer by FRET melting assay. The series is classed as nucleic-acid assay.
The subject of series [27] is Quadruplex DNA. The experiment in a line: Binding affinity to Trypanosoma brucei G-quadruplex telomeric DNA FEBR1T (5'-duplex GGG TTAGGG TTAGGG TTAGGG-3') assessed as stabilization by measuring change in melting temperature at 1 uM in potassium buffer by FRET melting assay. The series is classed as nucleic-acid assay.
A short description of series [28]: Binding affinity to hairpin duplex DNA F10T (unknown origin) assessed as stabilization by measuring change in melting temperature at 1 uM in potassium buffer by FRET melting assay.
A further series relates to MRC5. The series is described as §1. In kind it is toxicity, cell-based. Particulars: mrc5.
Where [29] appears, read: Leishmania major, MHOM/IL/80/Friedlin, 72 h.

For `CN1CCN(c2ccc(N3C(=O)c4ccc5c6c(ccc(c46)C3=O)C(=O)N(c3ccc(N4CCN(C)CC4)cc3)C5=O)cc2)CC1`, the shift in melting temperature (ΔTm) is 1.8 °C in the series on Quadruplex DNA [1]; -0.1 °C in [12]; 0.9 °C with Quadruplex DNA [14]; 1.4 °C in the series with Quadruplex DNA [16]; 1.3 °C in the series with Quadruplex DNA [18]. Further, the Drug uptake result in [2], in series [4], in [5], in [7], in series [8] and in series [10] was “Active” each time. For the same compound, the Drug uptake entry in series [13], in series [15], in series [17], in series [19], in series [20] and in [21] was “Active” throughout. Further, the Drug uptake result in series [22] and in series [23] was “Active” each time. Moreover, in [3], the IC50 at 72 h worked out at 22.3 µM. Moreover, the IC50 is 2.29 µM in the series on HeLa (Homo sapiens, HeLa, 72 h); 0.75 µM in the series with Trypanosoma brucei (Trypanosoma brucei, 72 h); 0.93 µM in the series on Leishmania major (setting [29]). The selectivity ratio in series [6] was determined as 9.72; in series [9] it was 29.5; in series [11] it was 23.8.
For `C[n+]1ccc(-c2c3nc(c(-c4cc[n+](C)cc4)c4ccc([nH]4)c(-c4cc[n+](C)cc4)c4ccc([nH]4)c(-c4cc[n+](C)cc4)c4nc2C=C4)C=C3)cc1`, the ΔTm in the series with Quadruplex DNA [24] was determined as 34.2 °C; with Quadruplex DNA [25], 28.1 °C; with Quadruplex DNA [26] it was 27.5 °C; with Quadruplex DNA [27], 28 °C; in series [28], 7.2 °C.
In the case of `C[n+]1cccc2c(N3C(=O)c4ccc5c6c(ccc(c46)C3=O)C(=O)N(c3cccc4c3ccc[n+]4C)C5=O)cccc21`, the ΔTm was found to be 0.6 °C in the series on Quadruplex DNA [1]; 0.5 °C in series [12]; 3 °C with Quadruplex DNA [14]; 2 °C in the series with Quadruplex DNA [16]; 1.4 °C with Quadruplex DNA [18]. For the same compound, the IC50 at 72 h in series [3] amounted to 0.28 µM. The IC50 in the series with HeLa (Homo sapiens, HeLa, 72 h) came to 24.2 µM; in the series on Trypanosoma brucei (Trypanosoma brucei, 72 h), 0.35 µM; in the series on Leishmania major (setting [29]), 1.86 µM. Moreover, the selectivity ratio in series [6] came to 0.011; in series [9], 0.79; in series [11], 0.15.
For `CN1CCN(c2ccccc2N2C(=O)c3ccc4c5c(ccc(c35)C2=O)C(=O)N(c2ccccc2N2CCN(C)CC2)C4=O)CC1`, the ΔTm with Quadruplex DNA [1] was 0.9 °C and 2.3 °C; in series [12] it was 0.1 °C and -0.3 °C; in the series on Quadruplex DNA [16], 1.6 °C and 1.9 °C; in the series on Quadruplex DNA [18], 1.4 °C and 1.9 °C. Also, the IC50 in the series on MRC5 is 1.23 µM; in the series on HeLa (Homo sapiens, HeLa, 72 h), 1.21 µM; in the series with HeLa (hela), 0.74 µM; in the series on Trypanosoma brucei it was 0.048 µM and 0.11 µM; with Leishmania major, 0.79 µM and 3.11 µM. The IC50 at 72 h in series [3] came to 1.5 µM. For the same compound, the “Ratio IC50” value in series [6] is 1.66; in [9] it was 30.69 and 10.53. Besides, in series [6], the selectivity ratio was determined as 1.23.
